The values that follow come from ChEMBL document CHEMBL4334550, “Toward Orally Absorbed Prodrugs of the Antibiotic Aztreonam. Design of Novel Prodrugs of Sulfate Containing Drugs. Part 2” (ACS Med Chem Lett, 2020).

Data set [1] addresses T1, Liver carboxylesterase 1 (Homo sapiens, UniProt P23141).
T1 sequence (P23141 whole entry): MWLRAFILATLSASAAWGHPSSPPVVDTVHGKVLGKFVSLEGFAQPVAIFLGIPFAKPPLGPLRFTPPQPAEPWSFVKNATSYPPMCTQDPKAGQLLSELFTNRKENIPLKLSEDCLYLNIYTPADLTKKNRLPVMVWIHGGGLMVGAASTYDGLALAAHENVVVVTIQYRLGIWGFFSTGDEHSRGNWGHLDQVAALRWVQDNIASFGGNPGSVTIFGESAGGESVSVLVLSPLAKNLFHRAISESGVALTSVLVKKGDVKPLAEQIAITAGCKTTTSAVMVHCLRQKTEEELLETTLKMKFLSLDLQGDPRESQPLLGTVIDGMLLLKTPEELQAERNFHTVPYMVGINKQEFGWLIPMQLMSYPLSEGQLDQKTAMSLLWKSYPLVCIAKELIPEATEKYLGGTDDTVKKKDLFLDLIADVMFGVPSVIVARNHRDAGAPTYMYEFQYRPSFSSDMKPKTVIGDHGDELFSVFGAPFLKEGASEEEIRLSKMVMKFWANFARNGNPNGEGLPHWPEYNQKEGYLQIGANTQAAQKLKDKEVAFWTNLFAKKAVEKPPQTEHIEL
The experiment in a line: Prodrug conversion assessed as CES1 (unknown origin) mediated aztreonam release in 2.5% acetonitrile in 0.05M citrate buffer at 0.5 mg/ml at pH 4.7 at 37degC after 2 mins in presence of 150 units/ml of CES1 enzyme by HPLC analysis. Type of data set: ADME. The settings on record: pH 4.7, 2 min.

Data set [2] addresses T1, Liver carboxylesterase 1. The experiment in a line: Prodrug conversion assessed as CES1 (unknown origin) mediated aztreonam release in 2.5% acetonitrile in 0.05M citrate buffer at 0.5 mg/ml at pH 4.7 at 37degC after 5 mins in presence of 150 units/ml of CES1 enzyme by HPLC analysis. The settings on record: pH 4.7, 5 min. Type of data set: ADME.
The target in data set [3] is T1, Liver carboxylesterase 1. The experiment in a line: Prodrug conversion assessed as CES1 (unknown origin) mediated aztreonam release in 2.5% acetonitrile in 0.05M citrate buffer at 0.5 mg/ml at pH 4.7 at 37degC after 10 mins in presence of 150 units/ml of CES1 enzyme by HPLC analysis. Type of data set: ADME. The settings on record: pH 4.7, 10 min.
The target of data set [4] is T1, Liver carboxylesterase 1. The experiment in a line: Prodrug conversion assessed as CES1 (unknown origin) mediated aztreonam release in 2.5% acetonitrile in 0.05M citrate buffer at 0.5 mg/ml at pH 4.7 at 37degC after 20 mins in presence of 150 units/ml of CES1 enzyme by HPLC analysis. Type of data set: ADME. To be noted: pH 4.7, 20 min.
The target of data set [5] is T1, Liver carboxylesterase 1. The experiment in a line: Prodrug conversion assessed as CES1 (unknown origin) mediated aztreonam release in 2.5% acetonitrile in 0.05M citrate buffer at 0.5 mg/ml at pH 4.7 at 37degC after 30 mins in presence of 150 units/ml of CES1 enzyme by HPLC analysis. Type of data set: ADME. To be noted: pH 4.7, 0.5 h.
Data set [6] addresses T1, Liver carboxylesterase 1. The experiment in a line: Prodrug conversion assessed as CES1 (unknown origin) mediated aztreonam release in 2.5% acetonitrile in 0.05M citrate buffer at 0.5 mg/ml at pH 4.7 at 37degC measured immediately in presence of 150 units/ml of CES1 enzyme by HPLC analysis. Type of data set: ADME. To be noted: BLD = below limit of detection.
The target of data set [7] is T1, Liver carboxylesterase 1. The experiment in a line: Prodrug conversion assessed as CES1 (unknown origin) mediated aztreonam and beta-lactam ring-opened prodrug intermediate release in 2.5% acetonitrile in 0.05M citrate buffer at 0.5 mg/ml at pH 4.7 at 37degC in presence of CES1 at lower concentration by HPLC analysis. Type of data set: ADME.
Data set [8] in a line: Stability of the compound in 2.5% acetonitrile in 0.05M citrate buffer assessed as aztreonam and beta-lactam ring-opened prodrug intermediate release at 0.5 mg/ml at pH 4.7 at 37degC by HPLC analysis. Type of data set: physicochemical.
Data set [9] addresses T1, Liver carboxylesterase 1. The experiment in a line: Prodrug conversion assessed as CES1 (unknown origin) mediated aztreonam release in 2.5% acetonitrile in 0.05M citrate buffer at 0.5 mg/ml at pH 4.7 at 37degC after 1 min in presence of 150 units/ml of CES1 enzyme by HPLC analysis. Type of data set: ADME. To be noted: pH 4.7, 1 min, BLD = below limit of detection.
Data set [10] can be described thus: Oral bioavailability in human at 500 mg administered as solution measured 16 hrs post dosing. Type of data set: ADME, organism-based. To be noted: in vivo.
Data set [11] in a line: Oral bioavailability in human at 500 mg administered twice as 250 mg tablet formulation measured 16 hrs post dose. To be noted: in vivo. Type of data set: ADME, organism-based.

The structures appear in SMILES notation. Where only a bound is given, the exact number is not on record here.

Turning to `CCOC(=O)CCC(C)(C)COS(=O)(=O)N1C(=O)[C@@H](NC(=O)/C(=N\OC(C)(C)C(=O)O)c2csc(N)n2)[C@@H]1C.O=C(O)C(F)(F)F`, the Drug metabolism is recorded as 45% in data set [1]; 76% in data set [2]; 86% in data set [3]; 90% in data set [4]; 90% in data set [5]; “Bld” in data set [6]. Also, the Drug metabolism result in data set [7] is “Metabolite_Detected”. The Stability result in data set [8] was “Unstable”.
With `CCOC(=O)C(C)(C)COS(=O)(=O)N1C(=O)[C@@H](NC(=O)/C(=N\OC(C)(C)C(=O)O)c2csc(N)n2)[C@@H]1C.O=C(O)C(F)(F)F`, the Drug metabolism result in data set [9] is on record as “Bld”; in data set [1], 4%; in [2] it was 8%; in data set [3], 14%; in [4], 23%; in data set [5], 28%. Moreover, the Drug metabolism result is reported as “Bld” in data set [6] and “Metabolite_Detected” in data set [7]. Further, in data set [8], the Stability result is recorded as “Unstable”.
As to `C[C@H]1[C@H](NC(=O)/C(=N\OC(C)(C)C(=O)O)c2csc(N)n2)C(=O)N1S(=O)(=O)OCC(C)(C)CCOC(=O)C(C)(C)C.O=C(O)C(F)(F)F`, the Drug metabolism in data set [1] is over 95%; in data set [2], over 95%; in data set [3] it was over 95%; in [4], over 95%; in data set [5] it was over 95%; in [6], “Bld”. Further, the Drug metabolism entry in data set [7] was “Metabolite_Detected”. In [8], the Stability result was “Unstable”.
With `C[C@H]1[C@H](NC(=O)/C(=N\OC(C)(C)C(=O)O)c2csc(N)n2)C(=O)N1S(=O)(=O)O` [AZTREONAM], the bioavailability in data set [10] and in [11] was under 1% in each case.

Broadly, the bioavailability is dose-corrected exposure relative to a reference, in per cent. Read a high bioavailability as good availability.
